{
  "source": "the OligoGym collection",
  "target": "UBE3A-ATS",
  "test": "mouse, dose not given",
  "conditions": "ASO",
  "note": "HELM strings list units from the 5' end as sugar, base in round brackets, then linkage (d deoxyribose, r ribose, m 2'-O-methyl, p phosphodiester). Strings are as the collection lists them; they lack the last nucleoside at the 3' end of the tested compound. [moe] = 2'-O-(2-methoxyethyl) (MOE); [sp] = phosphorothioate linkage; [m5C] = 5-methylcytosine",
  "data": [
    {"substance": "RNA1{[moe](G)[sp].[moe](G)p.[moe]([m5C])p.[moe](A)p.[moe](A)p.d(T)[sp].d(G)[sp].d(G)[sp].d(A)[sp].d([m5C])[sp].d(T)[sp].d(T)[sp].d(A)[sp].d(G)[sp].d(T)[sp].[moe](A)p.[moe]([m5C])p.[moe](A)[sp].[moe]([m5C])}$$$$ (last 3' nucleoside missing)", "values": [
      {"measurement": "3 h FOB score", "value": 2.3, "unit": "score 0-7"}
    ]},
    {"substance": "RNA1{[moe](G)[sp].[moe](G)p.[moe]([m5C])p.[moe](A)p.[moe](G)p.d([m5C])[sp].d(T)[sp].d([m5C])[sp].d([m5C])[sp].d(T)[sp].d(G)[sp].d(A)[sp].d([m5C])[sp].d(A)[sp].d(A)[sp].[moe](A)p.[moe](T)p.[moe](T)[sp].[moe](A)}$$$$ (last 3' nucleoside missing)", "values": [
      {"measurement": "3 h FOB score", "value": 4, "unit": "score 0-7"}
    ]},
    {"substance": "RNA1{[moe](G)[sp].[moe](G)p.[moe]([m5C])p.[moe](T)p.[moe](T)p.d(T)[sp].d(A)[sp].d(T)[sp].d(A)[sp].d([m5C])[sp].d(T)[sp].d(T)[sp].d(T)[sp].d(A)[sp].d([m5C])[sp].[moe]([m5C])p.[moe]([m5C])p.[moe](A)[sp].[moe](A)}$$$$ (last 3' nucleoside missing)", "values": [
      {"measurement": "3 h FOB score", "value": 1, "unit": "score 0-7"}
    ]},
    {"substance": "RNA1{[moe](G)[sp].[moe](G)p.[moe]([m5C])p.[moe]([m5C])p.[moe](T)p.d(G)[sp].d(A)[sp].d([m5C])[sp].d(T)[sp].d(A)[sp].d(G)[sp].d(G)[sp].d([m5C])[sp].d(A)[sp].d(T)[sp].[moe](T)p.[moe](G)p.[moe](A)[sp].[moe](A)}$$$$ (last 3' nucleoside missing)", "values": [
      {"measurement": "3 h FOB score", "value": 3, "unit": "score 0-7"}
    ]},
    {"substance": "RNA1{[moe](G)[sp].[moe](T)p.[moe](A)p.[moe](A)p.[moe](G)p.d(A)[sp].d(G)[sp].d(T)[sp].d(T)[sp].d(A)[sp].d(G)[sp].d([m5C])[sp].d(T)[sp].d(A)[sp].d(T)[sp].[moe](T)p.[moe]([m5C])p.[moe]([m5C])[sp].[moe]([m5C])}$$$$ (last 3' nucleoside missing)", "values": [
      {"measurement": "3 h FOB score", "value": 4, "unit": "score 0-7"}
    ]},
    {"substance": "RNA1{[moe](G)[sp].[moe](T)p.[moe](A)p.[moe](A)p.[moe](G)p.d(T)[sp].d(A)[sp].d(T)[sp].d(A)[sp].d(G)[sp].d(A)[sp].d(T)[sp].d(G)[sp].d([m5C])[sp].d([m5C])[sp].[moe](T)p.[moe]([m5C])p.[moe](T)[sp].[moe]([m5C])}$$$$ (last 3' nucleoside missing)", "values": [
      {"measurement": "3 h FOB score", "value": 3.8, "unit": "score 0-7"}
    ]},
    {"substance": "RNA1{[moe](G)[sp].[moe](T)p.[moe](A)p.[moe](A)p.[moe](T)p.d(G)[sp].d(A)[sp].d(T)[sp].d(T)[sp].d(T)[sp].d(G)[sp].d([m5C])[sp].d([m5C])[sp].d([m5C])[sp].d(T)[sp].[moe]([m5C])p.[moe]([m5C])p.[moe](T)[sp].[moe](A)}$$$$ (last 3' nucleoside missing)", "values": [
      {"measurement": "3 h FOB score", "value": 6, "unit": "score 0-7"}
    ]},
    {"substance": "RNA1{[moe](G)[sp].[moe](T)p.[moe](A)p.[moe](G)p.[moe](A)p.d(T)[sp].d(A)[sp].d(A)[sp].d([m5C])[sp].d(T)[sp].d(T)[sp].d(T)[sp].d(A)[sp].d([m5C])[sp].d([m5C])[sp].[moe](T)p.[moe](T)p.[moe](G)[sp].[moe](A)}$$$$ (last 3' nucleoside missing)", "values": [
      {"measurement": "3 h FOB score", "value": 0, "unit": "score 0-7"}
    ]},
    {"substance": "RNA1{[moe](G)[sp].[moe](T)p.[moe](A)p.[moe](G)p.[moe](G)p.d(A)[sp].d(G)[sp].d(A)[sp].d(T)[sp].d(A)[sp].d(G)[sp].d(G)[sp].d([m5C])[sp].d(A)[sp].d(G)[sp].[moe](T)p.[moe](G)p.[moe]([m5C])[sp].[moe](A)}$$$$ (last 3' nucleoside missing)", "values": [
      {"measurement": "3 h FOB score", "value": 5, "unit": "score 0-7"}
    ]},
    {"substance": "RNA1{[moe](G)[sp].[moe](T)p.[moe](A)p.[moe](G)p.[moe]([m5C])p.d(T)[sp].d(A)[sp].d(T)[sp].d(A)[sp].d(G)[sp].d(G)[sp].d(T)[sp].d(G)[sp].d(T)[sp].d([m5C])[sp].[moe](A)p.[moe]([m5C])p.[moe](A)[sp].[moe](T)}$$$$ (last 3' nucleoside missing)", "values": [
      {"measurement": "3 h FOB score", "value": 6.2, "unit": "score 0-7"}
    ]}
  ]
}
